Reference: PubChem BioAssay (NCI)
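48-hour exposure; five concentrations; linearly interpolated endpoints. GI50 is the concentration that inhibits growth by half. TGI: total growth inhibition.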

Columns and labels:
Assay in all cases: growth of human tumour cells (NCI), 48 h
HCT-15 colon = system: HCT-15 colon
PC-3 prostate = system: PC-3 prostate
COLO 205 colon = system: COLO 205 colon
U251 CNS = system: U251 CNS
MALME-3M melanoma = system: MALME-3M melanoma
NCI-H226 lung = system: NCI-H226 lung
KM12 colon = system: KM12 colon
DU-145 prostate = system: DU-145 prostate
CCRF-CEM leukemia = system: CCRF-CEM leukemia
SN12C renal = system: SN12C renal

Row | Structure (SMILES) | GI50 (HCT-15 colon) | TGI (HCT-15 colon) | GI50 (PC-3 prostate) | TGI (PC-3 prostate) | GI50 (COLO 205 colon) | TGI (COLO 205 colon) | GI50 (U251 CNS) | TGI (U251 CNS) | GI50 (MALME-3M melanoma) | TGI (MALME-3M melanoma) | GI50 (NCI-H226 lung) | TGI (NCI-H226 lung) | GI50 (KM12 colon) | TGI (KM12 colon) | GI50 (DU-145 prostate) | TGI (DU-145 prostate) | GI50 (CCRF-CEM leukemia) | TGI (CCRF-CEM leukemia) | GI50 (SN12C renal) | TGI (SN12C renal)
1 | CN(Cc1ccc(F)cc1)c1ccc(CO)c(Cl)c1 | 18.3 µM | > 100 µM | 20.3 µM | > 68.3 µM | 5.86 µM | 19.8 µM | 4.63 µM | 68.5 µM | 24.5 µM | 71.9 µM | 0.126 µM | 0.278 µM | 27.1 µM | > 76.9 µM | 29.1 µM | > 100 µM | 28.9 µM | > 100 µM | 23.2 µM | > 100 µM
2 | C=C1C(=O)O[C@H]2[C@H]1CC/C(COC(=O)NCc1ccc(Cn3c(=O)sn(CCCCC)c3=O)cc1)=C\CC[C@@]1(C)O[C@@H]21 | 1.66 µM | 3.23 µM | 1.92 µM | 3.8 µM | 1.78 µM | 3.33 µM | 2.2 µM | 4.93 µM | 1.61 µM | 3.4 µM | 10.7 µM | 27.6 µM | 2.23 µM | 4.94 µM | 1.68 µM | 3.04 µM | 0.364 µM | 1.67 µM | 1.71 µM | 3.72 µM
3 | ClCc1cccc(Cn2cnc3c(Cl)nc(Cl)nc32)c1 | 2.41 µM | 6.84 µM | 2.38 µM | 5.02 µM | 2.22 µM | 5.39 µM | 1.7 µM | 3.09 µM | 2.02 µM | 4.47 µM | 3.24 µM |  | 1.82 µM | 3.79 µM | 1.59 µM | 2.98 µM | 2.72 µM | > 100 µM | 2.14 µM | 4.66 µM
4 | CCCC1(CN2c3ccccc3Sc3ccc(Cl)cc32)CCN(CC)C1 (centres undefined) | 1.88 µM | 3.84 µM | 1.68 µM | 3.38 µM | 1.64 µM | 3.3 µM | 1.66 µM | 3.16 µM | 1.88 µM | 3.63 µM | 1.74 µM | 3.76 µM | 1.65 µM | 3.18 µM | 1.81 µM | 3.37 µM | 3.49 µM | > 100 µM | 3.03 µM | 8.74 µM
5 | CCCC(=O)N[C@H]1CCc2cc(OC)c(OC)c(OC)c2-c2ccc(SC)c(=O)cc21 |  | > 100 µM |  | > 100 µM |  | < 0.01 µM |  | 3.74 µM |  | > 100 µM |  | 0.215 µM |  | < 0.01 µM |  | < 0.01 µM |  | > 100 µM |  | > 91.8 µM
6 | CSc1ncnc2c1ncn2CC(=O)C1CCC2C3CCC4=CC(=O)CCC4(C)C3CCC12C (centres undefined) |  | > 77.1 µM |  | 9.71 µM |  | 14.4 µM |  | 42.4 µM |  | 31.7 µM |  | 29.8 µM |  | 9.88 µM |  | > 96.7 µM |  | 2.16 µM |  | > 93.8 µM
7 | Cc1cc(CCl)c(C)cc1CCl | 2.72 µM | 17.3 µM | 2.25 µM | 10.1 µM | 1.53 µM | 3.11 µM | 1.47 µM | 4.27 µM | 1.96 µM | 5.46 µM | 2.89 µM | 16 µM | 0.845 µM | 2.42 µM | 0.733 µM | 2.92 µM | 0.351 µM | 5.61 µM | 0.605 µM | 13.6 µM
8 | O=C(CC1(O)C(=O)Nc2ccc(F)cc21)c1ccc(C(=O)NCC2CCC3(CC2)OOC2(CCCCC2)OO3)cc1 (centres undefined) | 11.4 µM | 27.9 µM | 3.86 µM | 19.3 µM | 5.37 µM | 22.9 µM | 3.18 µM | 11.3 µM | 2.21 µM | 5.13 µM | 10.3 µM | 32.2 µM | 4.09 µM | 17.5 µM | 3.49 µM | 12.2 µM | 1.81 µM | 4.3 µM | 10.8 µM | 33.6 µM
9 | COc1ccc(-c2c(C#N)c(N)nc(N3CCOCC3)c2C#N)cc1 | 18.8 µM | 62.4 µM | 17.6 µM | 67.3 µM | 2.13 µM | 26.5 µM | 27.4 µM | > 100 µM | 11.7 µM | 54.7 µM | 26.3 µM | > 100 µM | 21.7 µM | 87.4 µM | 27.3 µM | > 100 µM | 17.9 µM | > 100 µM | 25.7 µM | > 100 µM
10 | CC(C)(C)[Si](C)(C)OC1[C@@H](CNC(N)=O)O[C@@H](n2cnc3c(NC(=O)Nc4ccccc4)ncnc32)[C@H]1O[Si](C)(C)C(C)(C)C (some centres undefined) | 2.67 µM | 10.3 µM | 0.814 µM | 1.99 µM | 1.23 µM | 2.7 µM | 1.89 µM | 7.93 µM | 5.19 µM | 12.5 µM | 5.39 µM | 11.7 µM | 1.09 µM | 2.2 µM | 1.71 µM | 5.59 µM | 1.06 µM | 2.48 µM | 0.916 µM | 1.84 µM
11 | O=[N+]([O-])c1cc([As](Br)c2ccc(O)c([N+](=O)[O-])c2)ccc1O |  | > 20.8 µM |  | 3.64 µM |  | 3.25 µM |  | 4.47 µM |  | 2.38 µM |  | 3.21 µM |  | 4.06 µM |  | 4.59 µM |  | 0.436 µM |  | 3.3 µM
